Measurements taken from US12232496B2, “Methods and system for stimulating root exudation in plants” (YEDA RESEARCH AND DEVELOPMENT CO. LTD, priority 2018, dated 2025).

Tested on: Catharanthus roseus
Assay: Split-root Catharanthus roseus seedlings: Root A stimulated, exudates analysed by MRM-LC-MS/MS
Type: in vivo
Details: applied to Root A; Root B exudate a week after stimulation; FIG. 16B
Description: Split roots are generated by cutting off the primary root. Lateral roots are then regenerated until they are long enough for the lateral roots to be placed directly in separate hydroponics or aeroponics containers. Each container is fed with plant medium.
Catharanthus roseus were grown, and split roots were obtained using the methods of Example 2. After lateral roots emerged, roots were aseptically placed separately in two 20 ml glass containers containing 0.5× Hoagland nutrient solution. Similar to Example 8, Root A of seedlings was stimulated with methyl-jasmonate, while growing in hydroponics using plant nutrient medium. Plants were incubated at 24° C. with a photoperiod of 16 h. A week after stimulation, the plant medium containing exudates from Root A and B were collected, filtered and extracted for LC-MS analysis. FIG. 16A depicts the MRM-LC-MS/MS analysis of C. roseus exudates. Vinca alkaloids present in the exudates of Root B after methyl jasmonate stimulation (FIG. 16A, top) and control plants (FIG. 16A, bottom) were analyzed via total ion current chromatograms. The quantification of three vinca alkaloids (19S-Vindolinine_RT_3.93, Vindolinine_RT_4.96, and Catarantine_11.77) was performed using an external standard curve of these three metabolites (FIG. 16B). […]

## CC/C=C\CC1C(=O)CCC1CC(=O)OC (stereo not shown) [Methyl jasmonate, methyl jasmonate]
  Vindolinine found in Root B exudate of treated plants, fold increase: up to 32 ×
